Measured values taken from US4104383A, “Derivatives of phenylpropenylamine” (C M Industries, priority 1973, dated 1978).
Converted amounts (≈) assume the structure as drawn. Like-named read-outs stand apart in the source and are kept apart here.

Key:
isolated rat duodenum = assay: Antispasmodic activity, barium chloride-induced spasms of isolated rat duodenum; settings: tyrode bath 37° C, barium chloride 100 μg/liter, compound added 3 minutes before, read-out: 50% effective concentration
Method: The antispasmodic activity of the compounds of the invention was also studied on the isolated rat duodenum, kept alive in an aerated tyrode bath at 37° C. Spasms were induced by the administration of barium chloride in an amount of 100 μg/liter. The compounds of the invention were added, at various concentrations, to the tyrode bath 3 minutes before the addition of the spasmogenic agent and the concentration determined of each which reduced by 50% the extent of the contraction caused by this agent.

central nervous system [1] = assay: Balancing test (rotating shaft); type: in vivo; settings: mouse, read-out: Balancing, median effective dose
Method: (Boissier J. R., Dumont C. and Ratouis R. "Therapie", 1960, 15, 1170)
In this test, mice were placed for 1 minute on a horizontal wooden shaft which rotated steadily at 12 r.p.m. The mice will normally counteract this movement using positional and balancing reflexes; if, however, the central nervous system is affected, these reflexes are disturbed and a certain number of animals fall off.
(§1) The results obtained from the tests described above are summarized in Table II; the figures given in this Table show the value of the median effective dose for each test. The method of administration is indicated by "I.V." for intravenous administration, "I.P." for intraperitoneal administration and "P.O." for oral administration.

Toxicity, LD50 in mice = settings: mouse, in vivo
Text: The toxicity of the compounds of the invention is generally low, as may be seen from Table IV, which gives the LD50 in mg/kg in mice for some of the compounds of the invention.

mouse [2] = assay: Exploration test (plank with holes, anxiolytic activity); type: in vivo; settings: read-out: Exploration, median effective dose
Method: (Boissier J. R. and Simon P. "Archives Internationales de Pharmacodynamie",1964, 147, 372).
This test, using a plank with holes in it, makes it possible to measure objectively the anxiolytic activity of a compound by noting the decrease in the number of holes explored within a given time by a treated mouse in comparison with a control mouse. The animals are used in batches of 10 and are allowed 5 minutes for exploration.
as §1

mouse [3] = assay: Reserpine test (reserpine-induced depression); type: in vivo; settings: reserpine 5 mg/kg subcutaneously, read-out: Reserpine, median effective dose
Method: (Rubin B., Malone M. H., Waugh M. H. and Burke J. C., "Journal of Pharmacology and Experimental Therapeutics", 1957, 120, 125)
Reserpine, administered subcutaneously to a mouse in a dose of 5 mg/kg body weight, causes symptoms of severe depression, with absolute fixity, ptosis of the eyelids, hypothermia and catatonia; the simultaneous administration of a substance having anti-depressive properties leads to the progressive total or partial disappearance of this depressed state.
as §1

mouse [4] = assay: Activity test (spontaneous motility, photoelectric cell cage); type: in vivo; settings: read-out: Activity, median effective dose
Method: (Boissier J. R. and Simon P. "Archives Internationales de Pharmacodynamie",1965, 158, 212).
A mouse was placed in a Plexiglass cage crossed by a plurality of beams of light acting on photoelectric cells. When the mouse moved and thereby interrupted one of the beams, this caused an electrical pulse which was registered on a counter. The measurements were carried out on batches of six treated animals and six control animals for a period of 20 minutes.
as §1

[5] = test system: severely depressed hospital patients; assay: Clinical evaluation in severely depressed hospital patients; type: in vivo, human
Method: A clinical evaluation of 933 CB was carried out using a sample of […] severely depressed hospital patients who were considering suicide or in some cases had attempted it. The sample contained 13 cases of nervous depression, 10 cases of reactional depression, seven cases of psychotic depression and three cases of severe melancholia. A clear favourable action on the depressive […] occurred in 21 of the patients. Several cases where a favourable response was noted had previously been treated with tricyclic antidepressants without success. […] The daily dose of the compound administered to each patient varied from 20 to 200 mg, the most favourable results being obtained with a dose of 40 to 60 mg.

[6] = test system: adynamic and depressive states; assay: Clinical use in adynamic and depressive states; type: in vivo; settings: 2 to 10 compressed tablets of 100 mg daily or 1 to 5 injectible ampoules of 100 mg
Method: The compounds of the invention have been successfully used clinically to treat adynamic and depressive states, such as melancholia, reactive depressions and manic-depressive psychosis.
The compounds of the present invention are preferably formulated for oral administration or for injection. The compounds of the invention are also suitable for rectal administration. For oral administration, compressed tablets, each containing from 20 to 500 mg of active ingredient are recommended and for injection, ampoules each containing from 10 to 500 mg of active ingredient are recommended.

central nervous system [7] = assay: Traction test; type: in vivo; settings: mouse, read-out: Traction, median effective dose
Text: (Courvoisier S., Ducrot R. and Julou L. "Psychotropic Drugs", Elsevier, 1957, p.373)
In this test, a mouse was hung by its front legs on a stretched wire. The animal will normally recover by itself, by gripping with its rear legs within 5 seconds.
as §1

dorsal hippocampus = assay: Electroencephalographic study, electrical stimulation of the dorsal hippocampus; type: in vivo, rabbit; settings: conscious rabbits, intravenous; 6 volts, 30 cycles per second, 5 seconds
Text: Electroencephalographic study
(Schmitt H. and Schmitt H., "Therapie", 1966, 3, 675-684)
Electrical stimulation of the dorsal hippocampus (6 volts; 30 cycles per second; 5 seconds, extent: 1.5 milliseconds) causes electrical discharges in the rabbit which continue for several seconds after cessation of electrical stimulation. These discharges last from 15 to 19 seconds in a normal animal. When the rabbit is under the influence of an antidepressant drug, these discharges last much longer. The experiment was carried out on batches of six conscious rabbits implanted by the technique of Monnier M. and Gangloff H. ("Atlas of Stereotaxic brain research on the conscious rabbit", Elsevier 1961), the products being administered intraveneously. The discharges were increased by 60% when the rabbits were treated with compound 933 CB and by 20 % when the rabbits were treated with compound 994 CB.

[8] = po, orally, read-out: LD50 orally
[9] = 30 severely depressed hospital patients, 20 to 200 mg daily

Compound | EC50 (isolated rat duodenum) [ng/mL] | ED50 (central nervous system [1]; ip, I.P.) [mg/kg] | LD50 (Toxicity, LD50 in mice; ip, I.P., read-out: LD50 I.P.) [mg/kg] | LD50 (Toxicity, LD50 in mice; [8]) [mg/kg] | ED50 (mouse [2]; ip, I.P.) [mg/kg] | ED50 (mouse [3]; ip, I.P.) [mg/kg] | ED50 (mouse [4]; ip, I.P.) [mg/kg] | patients with a clear favourable action on the depressive thymine [5, 9] [patients] | patients with improvement noted in less than a week [5, 9] [patients] | rapidity of action (in words) ([5]; depressed patients) | ED50 (central nervous system [1]; po, P.O.) [mg/kg] | results on administration (in words) [6] | ED50 (central nervous system [7]; ip, I.P.) [mg/kg] | ED50 (central nervous system [7]; po, P.O.) [mg/kg] | ED50 (mouse [2]; po, P.O.) [mg/kg] | ED50 (mouse [3]; po, P.O.) [mg/kg] | Increase of hippocampal discharges (dorsal hippocampus) [%] | ED50 (mouse [4]; po, P.O.) [mg/kg]
CCN(CC)CCCc1ccc(C2CCCCC2)c(Cl)c1 [934 CB, 3-Chloro-4-cyclohexyl-1-(3-diethylamino-propyl)-benzene] | 0.6 (≈ 1.95 nM) | 12.5 | 125 to 250 | > 750 | 20 | 50 | 30 |  |  |  |  |  |  |  |  |  |  | 
CCN(CC)CC=Cc1ccc(C2CCCCC2)c(Cl)c1 [933 CB, 3-chloro-4-cyclohexyl-1-(3-diethylamino-propen-1-yl)-benzene] | 0.6 to 1 (≈ 1.96 to 3.27 nM) | 30 | 125 | > 1080 | 25 | 75 | 25 | 21 | 13 | The action was rapid | 50 | Good results were obtained | 50 | 100 | 25 | 100 | 60 | 100
CN(C)CC=Cc1ccc(C2CCCCC2)c(Cl)c1 [31004 CB, 3-chloro-4-cyclohexyl-1-(3-dimethylamino-propen-1-yl)-benzene] | 1 to 3 (≈ 3.6 to 10.8 nM) | 100 | 125 | > 750 | 60 |  | 12.5 |  |  |  |  |  | > 100 |  |  |  |  | 
CN(C)CCCc1ccc(C2CCCCC2)c(Cl)c1 [31012 CB, 3-Chloro-4-cyclohexyl-1-(3-dimethylamino-propyl)-benzene] |  | 100 | 250 to 300 | > 750 | 50 |  | 50 |  |  |  |  |  | 100 |  |  |  |  | 
CCN(CC)CCCc1ccc(-c2ccccc2)cc1 [31001 CB, 4-(3-diethylamino-propyl)-biphenyl] | 1 (≈ 3.74 nM) | 100 |  |  |  |  | 50 |  |  |  |  |  | 100 |  |  |  |  | 
Clc1cc(C=CCN2CCCC2)ccc1C1CCCCC1 [31015 CB, 3-Chloro-4-cyclohexyl-1-(3-pyrrolidino-propen-1-yl)-benzene] | 1 to 3 (≈ 3.29 to 9.87 nM) | 50 | 62.5 | > 750 | 25 | 50 | 20 |  |  |  |  |  | 50 |  |  |  |  | 
CCN(CC)CC=Cc1ccc(C2CCCCC2)cc1 [31023 CB, 4-cyclohexyl-1-(3-diethylamino-propen-1-yl)-benzene] |  | 30 |  |  |  |  | 25 |  |  |  |  |  | 25 |  |  |  |  | 
CCN(CC)CC=Cc1ccc(C2CCCCC2)c(F)c1 [Compound 31030, 3-fluoro-4-cyclohexyl-1-(3-diethylamino-propen-1-yl)-benzene] |  | 25 |  |  | ≥ 50 |  | 100 |  |  |  |  |  | 50 |  |  |  |  | 
Clc1cc(C=CCN2CCOCC2)ccc1C1CCCCC1 [31013 CB, 3-chloro-4-cyclohexyl-1-(3-morpholino-propen-1-yl)-benzene] |  |  | 500 | > 750 | 50 |  | 50 |  |  |  |  |  |  |  |  |  |  | 
Clc1cc(CCCN2CCCC2)ccc1C1CCCCC1 [31016 CB, 3-Chloro-4-cyclohexyl-1-(3-pyrrolidino-propyl)-benzene] |  |  | 50 to 100 | > 750 | 20 | 50 | 12.5 |  |  |  |  |  |  |  |  |  |  | 
CCN(CC)CC=Cc1ccc(-c2ccccc2)cc1 [994 CB, 4-(3-diethylamino-propen-1-yl)-biphenyl] | 3 (≈ 11.3 nM) | 50 |  |  | 50 | 50 | 100 |  |  |  |  |  | 100 |  | 50 | 50 | 20 | 
